PubChem BioAssay (NCI)
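Growth conditions: 96-well plates. Treatment: test compound, 48 hours, 5 concentrations. Analysis: linear interpolation between bracketing concentrations; unreached endpoints set to highest concentration. TGI is the concentration that stops growth completely.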

Key:
Assay in all cases: inhibition of tumour cell growth, NCI panel, 48 h
SR leukemia = system: SR leukemia
RXF 393 renal = system: RXF 393 renal
SK-OV-3 ovarian = system: SK-OV-3 ovarian
K-562 leukemia = system: K-562 leukemia
OVCAR-5 ovarian = system: OVCAR-5 ovarian
DU-145 prostate = system: DU-145 prostate
MCF7 breast = system: MCF7 breast
HS 578T breast = system: HS 578T breast
SK-MEL-2 melanoma = system: SK-MEL-2 melanoma
SF-539 CNS = system: SF-539 CNS

Structure (SMILES) | TGI (SR leukemia) [µM] | TGI (RXF 393 renal) [µM] | TGI (SK-OV-3 ovarian) [µM] | TGI (K-562 leukemia) [µM] | TGI (OVCAR-5 ovarian) [µM] | TGI (DU-145 prostate) [µM] | TGI (MCF7 breast) [µM] | TGI (HS 578T breast) [µM] | TGI (SK-MEL-2 melanoma) [µM] | TGI (SF-539 CNS) [µM]
CC(C)Oc1cccc(N2C(n3ccnc3)=Nc3ccncc3S2(=O)=O)c1 | 14.9 | 28.9 | 31.8 | 36.6 | 27.6 | 25 | 24.1 | 38.5 | 26.7 | 20.1
CN(C)c1ccc(/C=C(\NC(=O)c2ccccc2)C(=O)NC(CC(=O)O)C(=O)O)cc1 (stereo not given) | > 100 | > 100 | > 100 | 33.3 | > 100 | > 100 | > 100 | > 100 | > 100 | > 100
S=C(Cc1ccc2c(c1)Sc1ccccc1O2)N1CCOCC1 | > 100 | > 100 | > 100 | > 100 | > 100 | > 100 | > 100 | 61.6 | > 100 | 61.1
O=C(O)c1nc2ccc(C(F)(F)F)cc2[nH]c1=O | > 100 | > 100 | > 100 | > 100 | > 100 | > 100 | > 100 | > 100 | > 100 | > 100
CN1CSC(=S)N(c2cccc(C(F)(F)F)c2)C1 | 52.5 | > 100 | > 100 | 59.6 | 37 | > 100 | 33.3 | 82.2 | 43.3 | 52
COc1ccc(N=Nc2c(-c3c(OC)cc4occc4c3OC)[nH]c(=O)c(C#N)c2C)cc1 | > 100 | > 100 | > 100 | > 100 | > 100 | > 100 | > 100 | > 100 | > 100 | > 100
Cc1nc2ccc(Cl)cc2c(-n2ccnc2)c1CCn1ccnc1 | 20.5 | 53.1 | > 100 | 89.3 | > 100 | > 100 | > 100 | 49.1 | 44.7 | > 100
CCOC(=O)c1c(N2CCCC2)[nH]c(=O)c(C(c2ccc(OC)cc2)c2c(O)c(C(=O)OCC)c(N3CCCC3)[nH]c2=O)c1O | > 100 | > 100 | > 100 | > 100 | > 100 | > 100 | > 100 | > 100 | 53.9 | > 100
OCc1ccc2c(c1)CC1(C2)Cc2cc3c(cc2C1O)CCC3 (stereo not given) | > 21.7 | 18.4 | 46.6 | > 37.6 | 56.1 | 67.1 | 17.6 | 11.4 | 12.7 | 14.9
COC(=O)/C=C(/C=C1/C(C#N)=C(N)N(c2ccc(Cl)cc2)C1(C)/C(=C\C(=O)OC)C(=O)OC)C(=O)OC (stereo not given) | > 100 | 35.4 | > 100 | > 100 | 48.3 | 89.2 | 46.2 | > 100 | 72.2 | 32.7
O=C(CC(NC(=O)C(F)(F)F)C(=O)O)OCc1ccccc1 (stereo not given) | > 100 | > 100 | > 100 | > 100 | > 100 | > 100 | > 100 | > 100 | > 100 | > 100
O=C(CCc1cc(O)cc(O)c1)NCCc1cc(OCc2ccccc2)cc(OCc2ccccc2)c1 | 27 | 27.4 | 31.6 | 29.7 | 39.5 | 33.5 | 23.6 | 48.7 | 28.2 | 44.6
CCOC1C=CC(=O)C(CO)O1 (stereo not given) | 6.63 | 24.2 | 33.3 | 26 | 35.2 | 31.2 | 17.7 | 49 | 37.1 | 23.8
